Measurements published in patent US20230092890A1, “1, 3, 4-Oxadiazole derivative compounds as histone deacetylase 6 inhibitor, and the pharmaceutical composition comprising the same” (Chong Kun Dang Pharmaceutical Corp., priority 2019, published 2023).
pIC50: −log10 of the molar value.

Tests used:
[1] = target: T1, HDAC1 (Homo sapiens, UniProt Q13547); experiment: HDAC enzyme activity inhibition (in vitro), HDAC1 Fluorimetric Drug Discovery Assay Kit; assay type: biochemical; conditions: samples at 100, 1000 and 10000 nM; 37° C. 60 minutes; fluorescence Ex 390, Em 460; read-out: HDAC1 IC50
T1 construct: purchased Enzolifesciences BML-AK511
T1 sequence (Q13547 whole entry): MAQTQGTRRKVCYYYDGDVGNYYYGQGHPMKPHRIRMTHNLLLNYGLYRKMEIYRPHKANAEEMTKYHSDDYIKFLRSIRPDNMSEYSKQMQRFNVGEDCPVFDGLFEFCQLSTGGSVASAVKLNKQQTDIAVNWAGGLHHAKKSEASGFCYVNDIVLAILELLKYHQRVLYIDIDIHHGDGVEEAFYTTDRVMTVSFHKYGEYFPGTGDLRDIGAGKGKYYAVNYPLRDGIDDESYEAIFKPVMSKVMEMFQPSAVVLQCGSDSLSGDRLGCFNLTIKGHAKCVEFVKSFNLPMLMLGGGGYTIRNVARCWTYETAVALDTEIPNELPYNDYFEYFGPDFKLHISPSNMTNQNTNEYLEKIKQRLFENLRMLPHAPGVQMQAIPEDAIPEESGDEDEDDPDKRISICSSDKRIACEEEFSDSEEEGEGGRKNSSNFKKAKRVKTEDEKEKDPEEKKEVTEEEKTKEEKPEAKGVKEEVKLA
Description: <Experimental Example 1> Identification of HDAC Enzyme Activity Inhibition (In Vitro)
A selective HDAC6 inhibitor is important for selectivity of HDAC1 inhibition, which is a cause of side effects, and thus HDAC1/6 enzyme selectivity and cell selectivity (HDAC1: histone acetylation/HDAC6: tubulin acetylation) were identified.
(§1) A HDAC enzyme inhibitory capacity of a test material was measured by using HDAC1 Fluorimetric Drug Discovery Assay Kit (Enzolifesciences: BML-AK511) and HDAC6 human recombinant (Calbiochem: 382180). For a HDAC1 assay, samples were treated at a concentration of 100, 1000 and 10000 nM. For a HDAC6 assay, samples were treated at a concentration of 0.1, 1, 10, 100 and 1000 nM. After the above sample treatment, a reaction was continued at 37° C. for 60 minutes, then treated with a developer, and then subjected to a reaction at 37° C. for 30 minutes, after which fluorescence intensity (Ex 390, Em 460) was measured by using FlexStatin3 (Molecular device).

[2] = target: T2, HDAC6 human recombinant (Homo sapiens, UniProt Q9UBN7); experiment: HDAC enzyme activity inhibition (in vitro), HDAC6 assay; assay type: biochemical; conditions: samples at 0.1, 1, 10, 100 and 1000 nM; 37° C. 60 minutes; fluorescence Ex 390, Em 460; read-out: HDAC6 IC50
T2 construct: purchased Calbiochem 382180
T2 sequence (Q9UBN7 1-1215): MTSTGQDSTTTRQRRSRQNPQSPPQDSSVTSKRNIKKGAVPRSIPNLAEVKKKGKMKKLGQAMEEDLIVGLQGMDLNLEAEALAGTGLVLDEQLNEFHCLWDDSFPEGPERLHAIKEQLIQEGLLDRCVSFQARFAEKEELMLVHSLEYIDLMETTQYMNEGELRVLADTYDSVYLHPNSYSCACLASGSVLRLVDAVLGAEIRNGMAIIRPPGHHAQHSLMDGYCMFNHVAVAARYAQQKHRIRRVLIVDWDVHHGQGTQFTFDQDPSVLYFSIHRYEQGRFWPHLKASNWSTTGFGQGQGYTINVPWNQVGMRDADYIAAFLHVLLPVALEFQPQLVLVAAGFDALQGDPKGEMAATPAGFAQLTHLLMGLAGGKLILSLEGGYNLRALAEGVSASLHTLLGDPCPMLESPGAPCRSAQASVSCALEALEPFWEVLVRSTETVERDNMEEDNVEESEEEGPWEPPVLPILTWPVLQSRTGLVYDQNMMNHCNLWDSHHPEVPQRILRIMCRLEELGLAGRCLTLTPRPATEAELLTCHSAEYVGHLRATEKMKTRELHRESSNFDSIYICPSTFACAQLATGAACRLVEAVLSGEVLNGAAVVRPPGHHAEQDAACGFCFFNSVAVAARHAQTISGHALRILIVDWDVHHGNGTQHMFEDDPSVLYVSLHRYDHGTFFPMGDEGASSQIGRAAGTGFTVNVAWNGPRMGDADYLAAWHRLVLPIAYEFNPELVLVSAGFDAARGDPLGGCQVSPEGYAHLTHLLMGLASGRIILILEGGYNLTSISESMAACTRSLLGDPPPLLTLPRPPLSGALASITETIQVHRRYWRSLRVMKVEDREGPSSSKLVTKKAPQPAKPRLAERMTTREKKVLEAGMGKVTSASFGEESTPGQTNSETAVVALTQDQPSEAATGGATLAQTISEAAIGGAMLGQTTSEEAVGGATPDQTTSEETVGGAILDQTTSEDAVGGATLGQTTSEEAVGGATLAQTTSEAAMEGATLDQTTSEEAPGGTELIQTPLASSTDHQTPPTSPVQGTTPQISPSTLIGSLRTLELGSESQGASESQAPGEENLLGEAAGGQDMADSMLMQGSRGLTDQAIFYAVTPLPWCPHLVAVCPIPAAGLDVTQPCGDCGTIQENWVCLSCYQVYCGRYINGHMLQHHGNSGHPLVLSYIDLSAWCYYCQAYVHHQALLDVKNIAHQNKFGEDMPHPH
Description: as §1, with “For a HDAC6 assay, samples were treated at a concentration of 0.1, 1, 10, 100 and 1000 nM.” left out

SMILES | pIC50 [1] | pIC50 [2]
CN1CCC(n2c(=O)n(Cc3ccc(-c4nnc(C(F)F)o4)cc3F)c3ccccc32)CC1 [Compound 1, 1-(4-(5-(difluoromethyl)-1,3,4-oxadiazole-2-yl)-2-fluorobenzyl)-3-(1-methylpiperidine-4-yl)-1,3-dihydro-2H-benzo[d]imidazole-2-one] | < 5.00 | 6.63
O=c1n(CCN2CCOCC2)c2ccccc2n1Cc1ccc(-c2nnc(C(F)F)o2)cc1F [Compound 2, 1-(4-(5-(difluoromethyl)-1,3,4-oxadiazole-2-yl)-2-fluorobenzyl)-3-(2-morpholinoethyl)-1,3-dihydro-2H-benzo[d]imidazole-2-one] | < 5.00 | 6.69
CN(C)CCn1c(=O)n(Cc2ccc(-c3nnc(C(F)F)o3)cn2)c2ccccc21 [Compound 3, 1-((5-(5-(difluoromethyl)-1,3,4-oxadiazole-2-yl)pyridine-2-yl)methyl)-3-(2-(dimethylamino)ethyl)-1,3-dihydro-2H-benzo[d]imidazole-2-one] | < 5.00 | 6.94
CN1CCC(n2c(=O)n(Cc3ccc(-c4nnc(C(F)F)o4)cn3)c3ccccc32)CC1 [Compound 4, 1-((5-(5-(difluoromethyl)-1,3,4-oxadiazole-2-yl)pyridine-2-yl)methyl)-3-(1-methylpiperidine-4-yl)-1,3-dihydro-2H-benzo[d]imidazole-2-one] | < 5.00 | 6.75
CN1CCC(n2c(=O)n(Cc3ccc(-c4nnc(C(F)F)o4)cc3)c3ccccc32)CC1 [Compound 5, 1-(4-(5-(difluoromethyl)-1,3,4-oxadiazole-2-yl)benzyl)-3-(1-methylpiperidine-4-yl)-1,3-dihydro-2H-benzo[d]imidazole-2-one] | < 5.00 | 6.47
CN1CCC(n2c(=O)n(Cc3ccc(-c4nnc(C(F)F)o4)cn3)c3ccccc32)C1 (stereo not shown) [Compound 6, 1-((5-(5-(difluoromethyl)-1,3,4-oxadiazole-2-yl)pyridine-2-yl)methyl)-3-(1-methylpyrrolidine-3-yl)-1,3-dihydro-2H-benzo[d]imidazole-2-one] | < 5.00 | 6.69
CN1CC(n2c(=O)n(Cc3ccc(-c4nnc(C(F)F)o4)cn3)c3ccccc32)C1 [Compound 7, 1-((5-(5-(difluoromethyl)-1,3,4-oxadiazole-2-yl)pyridine-2-yl)methyl)-3-(1-methylazetidine-3-yl)-1,3-dihydro-2H-benzo[d]imidazole-2-one] | < 5.00 | 6.58
CN1CCC(N2Cc3ccccc3N(Cc3ccc(-c4nnc(C(F)F)o4)cn3)C2=O)CC1 [Compound 8, 1-((5-(5-(difluoromethyl)-1,3,4-oxadiazole-2-yl)pyridine-2-yl)methyl)-3-(1-methylpiperidine-4-yl)-3,4-dihydroquinazoline-2(1H)-one] | < 5.00 | 6.77
CN1CC(N2Cc3ccccc3N(Cc3ccc(-c4nnc(C(F)F)o4)cn3)C2=O)C1 [Compound 9, 1-((5-(5-(difluoromethyl)-1,3,4-oxadiazole-2-yl)pyridine-2-yl)methyl)-3-(1-methylazetidine-3-yl)-3,4-dihydroquinazoline-2(1H)-one] | < 5.00 | 6.48
CN1CCC(Cn2c(=O)n(Cc3ccc(-c4nnc(C(F)F)o4)cn3)c3ccccc32)CC1 [Compound 10, 1-((5-(5-(difluoromethyl)-1,3,4-oxadiazole-2-yl)pyridine-2-yl)methyl)-3-((1-methylpiperidine-4-yl)methyl)-1,3-dihydro-2H-benzo[d]imidazole-2-one] | < 5.00 | 6.65

Other lines, results leading:

pIC50 [1] | pIC50 [2] | SMILES
< 5.00 | 6.62 | O=c1n(Cc2ccc(-c3nnc(C(F)F)o3)cn2)c2ccccc2n1C1COC1 [Compound 11, 1-((5-(5-(difluoromethyl)-1,3,4-oxadiazole-2-yl)pyridine-2-yl)methyl)-3-(oxetan-3-yl)-1,3-dihydro-2H-benzo[d]imidazole-2-one]
< 5.00 | 6.80 | O=c1n(Cc2ccc(-c3nnc(C(F)F)o3)cn2)c2ccccc2n1C1CCOCC1 [Compound 12, 1-((5-(5-(difluoromethyl)-1,3,4-oxadiazole-2-yl)pyridine-2-yl)methyl)-3-(tetrahydro-2H-pyran-4-yl)-1,3-dihydro-2H-benzo[d]imidazole-2-one]
< 5.00 | 6.79 | O=c1n(Cc2ccc(-c3nnc(C(F)F)o3)cn2)c2ccccc2n1C1CCS(=O)(=O)CC1 [Compound 13, 1-((5-(5-(difluoromethyl)-1,3,4-oxadiazole-2-yl)pyridine-2-yl)methyl)-3-(1,1-dioxydotetrahydro-2H-thiopyran-4-yl)-1,3-dihydro-2H-benzo[d]imidazole-2-one]
< 5.00 | 6.68 | CCN1CCC(n2c(=O)n(Cc3ccc(-c4nnc(C(F)F)o4)cc3F)c3ccccc32)CC1 [Compound 14, 1-(4-(5-(difluoromethyl)-1,3,4-oxadiazole-2-yl)-2-fluorobenzyl)-3-(1-ethylpiperidine-4-yl)-1,3-dihydro-2H-benzo[d]imidazole-2-one]
< 5.00 | 6.71 | CC(C)N1CCC(n2c(=O)n(Cc3ccc(-c4nnc(C(F)F)o4)cc3F)c3ccccc32)CC1 [Compound 15, 1-(4-(5-(difluoromethyl)-1,3,4-oxadiazole-2-yl)-2-fluorobenzyl)-3-(1-isopropylpiperidine-4-yl)-1,3-dihydro-2H-benzo[d]imidazole-2-one]
< 5.00 | – | O=c1n(Cc2ccc(-c3nnc(C(F)F)o3)cn2)c2cc(F)ccc2n1C1CCN(C2CCC2)CC1 [Compound 52, 1-(1-cyclobutylpiperidine-4-yl)-3-((5-(5-(difluoromethyl)-1,3,4-oxadiazole-2-yl)pyridine-2-yl)methyl)-5-fluoro-1,3-dihydro-2H-benzo[d]imidazole-2-one]
< 5.00 | – | O=c1n(Cc2ccc(-c3nnc(C(F)F)o3)cn2)c2cc(F)ccc2n1C1CCS(=O)(=O)CC1 [Compound 188, 3-((5-(5-(difluoromethyl)-1,3,4-oxadiazole-2-yl)pyridine-2-yl)methyl)-1-(1,1-dioxydotetrahydro-2H-thiopyran-4-yl)-5-fluoro-1,3-dihydro-2H-benzo[d]imidazole-2-one]
< 5.00 | – | Cn1nccc1-c1cc2c(cc1F)n(Cc1ccc(-c3nnc(C(F)F)o3)cn1)c(=O)n2C [Compound 226, 1-((5-(5-(difluoromethyl)-1,3,4-oxadiazole-2-yl)pyridine-2-yl)methyl)-6-fluoro-3-methy 1-5-(1-methyl-1H-pyrazole-5-yl)-1,3-dihydro-2H-benzo[d]imidazole-2-one]
< 5.00 | – | CN1CCN(c2cc3c(cc2F)n(Cc2ccc(-c4nnc(C(F)F)o4)cn2)c(=O)n3C)CC1 [Compound 260, 1-((5-(5-(difluoromethyl)-1,3,4-oxadiazole-2-yl)pyridine-2-yl)methyl)-6-fluoro-3-methy 1-5-(4-methylpiperazine-1-yl)-1,3-dihydro-2H-benzo[d]imidazole-2-one]
